{"source": "ChEMBL document CHEMBL3045305", "about": "“Synthesis, anticancer and antibacterial activities of piperine analogs” (Med Chem Res, 2013)", "data": [{"system": "Pseudomonas aeruginosa", "test": "Antibacterial activity against Pseudomonas aeruginosa assessed as growth inhibition after 24 hr by two-fold serial dilution method", "format": "functional", "units": {"MIC": "µg/mL"}, "values": [{"smiles": "O=C(/C=C/C=C/c1ccc2c(c1)OCO2)N[C@@H](Cc1ccccc1)C(=O)O", "MIC": 400}, {"smiles": "O=C(/C=C/C=C/c1ccc2c(c1)OCO2)N[C@@H](Cc1c[nH]c2ccccc12)C(=O)O", "MIC": 200}, {"smiles": "O=C(/C=C/C=C/c1ccc2c(c1)OCO2)N[C@@H](Cc1cnc[nH]1)C(=O)O", "MIC": 300}, {"smiles": "O=C(/C=C/C=C/c1ccc2c(c1)OCO2)N1CCCCC1", "note": "[PIPERINE]", "MIC": 100}, {"smiles": "CC1(C)S[C@@H]2[C@H](NC(=O)[C@H](N)c3ccccc3)C(=O)N2[C@H]1C(=O)O", "note": "[AMPICILLIN]", "MIC": 50}, {"smiles": "O=C(/C=C/C=C/c1ccc2c(c1)OCO2)Nc1ccc(Cl)cc1", "MIC": 200}, {"smiles": "O=C(/C=C/C=C/c1ccc2c(c1)OCO2)Nc1ccc(Br)cc1", "MIC": 500}]}, {"system": "Staphylococcus aureus", "test": "Antibacterial activity against Staphylococcus aureus assessed as growth inhibition after 24 hr by two fold serial dilution method", "format": "functional", "units": {"MIC": "µg/mL"}, "values": [{"smiles": "O=C(/C=C/C=C/c1ccc2c(c1)OCO2)N[C@@H](Cc1ccccc1)C(=O)O", "MIC": 400}, {"smiles": "O=C(/C=C/C=C/c1ccc2c(c1)OCO2)N[C@@H](Cc1c[nH]c2ccccc12)C(=O)O", "MIC": 300}, {"smiles": "O=C(/C=C/C=C/c1ccc2c(c1)OCO2)N[C@@H](Cc1cnc[nH]1)C(=O)O", "MIC": 300}, {"smiles": "O=C(/C=C/C=C/c1ccc2c(c1)OCO2)N1CCCCC1", "note": "[PIPERINE]", "MIC": 300}, {"smiles": "CC1(C)S[C@@H]2[C@H](NC(=O)[C@H](N)c3ccccc3)C(=O)N2[C@H]1C(=O)O", "note": "[AMPICILLIN]", "MIC": 11}, {"smiles": "O=C(/C=C/C=C/c1ccc2c(c1)OCO2)Nc1ccc(Cl)cc1", "MIC": 200}, {"smiles": "O=C(/C=C/C=C/c1ccc2c(c1)OCO2)Nc1ccc(Br)cc1", "MIC": 300}]}, {"system": "Bacillus subtilis", "test": "Antibacterial activity against Bacillus subtilis assessed as growth inhibition after 24 hr by two fold serial dilution method", "format": "functional", "units": {"MIC": "µg/mL"}, "values": [{"smiles": "O=C(/C=C/C=C/c1ccc2c(c1)OCO2)N[C@@H](Cc1ccccc1)C(=O)O", "MIC": 400}, {"smiles": "O=C(/C=C/C=C/c1ccc2c(c1)OCO2)N[C@@H](Cc1c[nH]c2ccccc12)C(=O)O", "MIC": 400}, {"smiles": "O=C(/C=C/C=C/c1ccc2c(c1)OCO2)N[C@@H](Cc1cnc[nH]1)C(=O)O", "MIC": 300}, {"smiles": "O=C(/C=C/C=C/c1ccc2c(c1)OCO2)N1CCCCC1", "note": "[PIPERINE]", "MIC": 500}, {"smiles": "CC1(C)S[C@@H]2[C@H](NC(=O)[C@H](N)c3ccccc3)C(=O)N2[C@H]1C(=O)O", "note": "[AMPICILLIN]", "MIC": 10}, {"smiles": "O=C(/C=C/C=C/c1ccc2c(c1)OCO2)Nc1ccc(Cl)cc1", "MIC": 500}, {"smiles": "O=C(/C=C/C=C/c1ccc2c(c1)OCO2)Nc1ccc(Br)cc1", "MIC": 500}]}, {"system": "Shigella dysenteriae", "test": "Antibacterial activity against Shigella dysenteriae assessed as growth inhibition after 24 hr by two-fold serial dilution method", "format": "functional", "units": {"MIC": "µg/mL"}, "values": [{"smiles": "O=C(/C=C/C=C/c1ccc2c(c1)OCO2)N[C@@H](Cc1ccccc1)C(=O)O", "MIC": 150}, {"smiles": "O=C(/C=C/C=C/c1ccc2c(c1)OCO2)N[C@@H](Cc1c[nH]c2ccccc12)C(=O)O", "MIC": 300}, {"smiles": "O=C(/C=C/C=C/c1ccc2c(c1)OCO2)N[C@@H](Cc1cnc[nH]1)C(=O)O", "MIC": 200}, {"smiles": "O=C(/C=C/C=C/c1ccc2c(c1)OCO2)N1CCCCC1", "note": "[PIPERINE]", "MIC": 600}, {"smiles": "CC1(C)S[C@@H]2[C@H](NC(=O)[C@H](N)c3ccccc3)C(=O)N2[C@H]1C(=O)O", "note": "[AMPICILLIN]", "MIC": 16}, {"smiles": "O=C(/C=C/C=C/c1ccc2c(c1)OCO2)Nc1ccc(Cl)cc1", "MIC": 200}, {"smiles": "O=C(/C=C/C=C/c1ccc2c(c1)OCO2)Nc1ccc(Br)cc1", "MIC": 300}]}, {"system": "Salmonella typhi", "test": "Antibacterial activity against Salmonella enterica subsp. enterica serovar Typhi assessed as growth inhibition after 24 hr by two fold serial dilution method", "format": "functional", "units": {"MIC": "µg/mL"}, "values": [{"smiles": "O=C(/C=C/C=C/c1ccc2c(c1)OCO2)N[C@@H](Cc1ccccc1)C(=O)O", "MIC": 200}, {"smiles": "O=C(/C=C/C=C/c1ccc2c(c1)OCO2)N[C@@H](Cc1c[nH]c2ccccc12)C(=O)O", "MIC": 200}, {"smiles": "O=C(/C=C/C=C/c1ccc2c(c1)OCO2)N[C@@H](Cc1cnc[nH]1)C(=O)O", "MIC": 300}, {"smiles": "O=C(/C=C/C=C/c1ccc2c(c1)OCO2)N1CCCCC1", "note": "[PIPERINE]", "MIC": 200}, {"smiles": "CC1(C)S[C@@H]2[C@H](NC(=O)[C@H](N)c3ccccc3)C(=O)N2[C@H]1C(=O)O", "note": "[AMPICILLIN]", "MIC": 15}, {"smiles": "O=C(/C=C/C=C/c1ccc2c(c1)OCO2)Nc1ccc(Cl)cc1", "MIC": 400}, {"smiles": "O=C(/C=C/C=C/c1ccc2c(c1)OCO2)Nc1ccc(Br)cc1", "MIC": 300}]}, {"system": "Klebsiella pneumoniae", "test": "Antibacterial activity against Klebsiella pneumoniae assessed as growth inhibition after 24 hr by two-fold serial dilution method", "format": "functional", "units": {"MIC": "µg/mL"}, "values": [{"smiles": "O=C(/C=C/C=C/c1ccc2c(c1)OCO2)N[C@@H](Cc1ccccc1)C(=O)O", "MIC": 300}, {"smiles": "O=C(/C=C/C=C/c1ccc2c(c1)OCO2)N[C@@H](Cc1c[nH]c2ccccc12)C(=O)O", "MIC": 200}, {"smiles": "O=C(/C=C/C=C/c1ccc2c(c1)OCO2)N[C@@H](Cc1cnc[nH]1)C(=O)O", "MIC": 300}, {"smiles": "O=C(/C=C/C=C/c1ccc2c(c1)OCO2)N1CCCCC1", "note": "[PIPERINE]", "MIC": 200}, {"smiles": "CC1(C)S[C@@H]2[C@H](NC(=O)[C@H](N)c3ccccc3)C(=O)N2[C@H]1C(=O)O", "note": "[AMPICILLIN]", "MIC": 8}, {"smiles": "O=C(/C=C/C=C/c1ccc2c(c1)OCO2)Nc1ccc(Cl)cc1", "MIC": 300}, {"smiles": "O=C(/C=C/C=C/c1ccc2c(c1)OCO2)Nc1ccc(Br)cc1", "MIC": 100}]}, {"system": "Escherichia coli", "test": "Antibacterial activity against Escherichia coli assessed as growth inhibition after 24 hr by two-fold serial dilution method", "format": "functional", "units": {"MIC": "µg/mL"}, "values": [{"smiles": "O=C(/C=C/C=C/c1ccc2c(c1)OCO2)N[C@@H](Cc1ccccc1)C(=O)O", "MIC": 300}, {"smiles": "O=C(/C=C/C=C/c1ccc2c(c1)OCO2)N[C@@H](Cc1c[nH]c2ccccc12)C(=O)O", "MIC": 400}, {"smiles": "O=C(/C=C/C=C/c1ccc2c(c1)OCO2)N[C@@H](Cc1cnc[nH]1)C(=O)O", "MIC": 200}, {"smiles": "O=C(/C=C/C=C/c1ccc2c(c1)OCO2)N1CCCCC1", "note": "[PIPERINE]", "MIC": 300}, {"smiles": "CC1(C)S[C@@H]2[C@H](NC(=O)[C@H](N)c3ccccc3)C(=O)N2[C@H]1C(=O)O", "note": "[AMPICILLIN]", "MIC": 5}, {"smiles": "O=C(/C=C/C=C/c1ccc2c(c1)OCO2)Nc1ccc(Cl)cc1", "MIC": 100}, {"smiles": "O=C(/C=C/C=C/c1ccc2c(c1)OCO2)Nc1ccc(Br)cc1", "MIC": 200}]}]}
